Patent US9309225B2, “N-((1-benzyl-1H-1,2,3-triazol-4-yl)methyl)arylamide compounds as potential anticancer agents and a process for the preparation thereof” (COUNCIL OF SCIENTIFIC & INDUSTRIAL RESEARCH, priority 2013, dated 2016)

How the values were obtained:
[1] = test system: SK-MEL-2; experiment: NCI sixty human tumor cell line screen, Melanoma panel; assay type: cell-based; conditions: SK-MEL-2, Melanoma, NCI protocol
Method: (§1) The in vitro anticancer activity studies for these N-((1-benzyl-1H-1,2,3-triazol-4-yl)methyl) arylamide analogues were carried out at the National Cancer Institute, USA.
(§2) The N-((1-benzyl-1H-1,2,3-triazol-4-yl)methyl)arylamide analogues have been tested at NCI, USA, against sixty human tumor cell lines derived from nine cancer types (leukemia, non-small cell lung cancer, colon cancer, CNS cancer, melanoma cancer, ovarian cancer, renal cancer, prostate cancer and breast cancer). For these compounds results are expressed as growth inhibition (GI50) values as per NCI protocol.

[2] = test system: MDA-MB-435; experiment: as above; assay type: cell-based; conditions: MDA-MB-435, Melanoma, NCI protocol
Method: as §1, §2

[3] = test system: LOX IMVI; experiment: as above; assay type: cell-based; conditions: NCI protocol
Method: as §1, §2

[4] = test system: M14; experiment: as above; assay type: cell-based; conditions: NCI protocol
Method: as §1, §2

[5] = test system: UACC-62; experiment: as above; assay type: cell-based; conditions: UACC-62, Melanoma, NCI protocol
Method: as §1, §2

[6] = test system: SK-MEL-5; experiment: as above; assay type: cell-based; conditions: SK-MEL-5, Melanoma, NCI protocol
Method: as §1, §2

[7] = test system: SK-MEL-28; experiment: as above; assay type: cell-based; conditions: SK-MEL-28, Melanoma, NCI protocol
Method: as §1, §2

[8] = test system: OVCAR-3; experiment: NCI sixty human tumor cell line screen, Ovarian panel; assay type: cell-based; conditions: OVCAR-3, Ovarian, NCI protocol
Method: as §1, §2

[9] = test system: NCI/ADR-RES; experiment: as above; assay type: cell-based; conditions: NCI protocol
Method: as §1, §2

[10] = test system: OVCAR-8; experiment: as above; assay type: cell-based; conditions: OVCAR-8, Ovarian, NCI protocol
Method: as §1, §2

[11] = test system: SK-OV-3; experiment: as above; assay type: cell-based; conditions: SK-OV-3, Ovarian, NCI protocol
Method: as §1, §2

[12] = test system: OVCAR-4; experiment: as above; assay type: cell-based; conditions: OVCAR-4, Ovarian, NCI protocol
Method: as §1, §2

[13] = test system: DU-145; experiment: NCI sixty human tumor cell line screen, Prostate panel; assay type: cell-based; conditions: DU-145, Prostate, NCI protocol
Method: as §1, §2

[14] = test system: PC-3; experiment: as above; assay type: cell-based; conditions: PC-3, Prostate, NCI protocol
Method: as §1, §2

[15] = test system: UO-31; experiment: NCI sixty human tumor cell line screen, Renal panel; assay type: cell-based; conditions: UO-31, Renal, NCI protocol
Method: as §1, §2

[16] = test system: A498; experiment: as above; assay type: cell-based; conditions: NCI protocol
Method: as §1, §2

[17] = test system: TK-10; experiment: as above; assay type: cell-based; conditions: TK-10, Renal, NCI protocol
Method: as §1, §2

[18] = test system: SN12C; experiment: as above; assay type: cell-based; conditions: NCI protocol
Method: as §1, §2

[19] = test system: CAKI-1; experiment: as above; assay type: cell-based; conditions: CAKI-1, Renal, NCI protocol
Method: as §1, §2

[20] = test system: ACHN; experiment: as above; assay type: cell-based; conditions: NCI protocol
Method: as §1, §2

[21] = test system: RXF 393; experiment: as above; assay type: cell-based; conditions: RXF 393, Renal, NCI protocol
Method: as §1, §2

[22] = test system: T-47D; experiment: NCI sixty human tumor cell line screen, Breast panel; assay type: cell-based; conditions: T47D, NCI protocol
Method: as §1, §2

[23] = test system: MDA-MB-468; experiment: as above; assay type: cell-based; conditions: MDA-MB-468, Breast, NCI protocol
Method: as §1, §2

[24] = test system: MDA-MB-31/ATCC; experiment: as above; assay type: cell-based; conditions: NCI protocol
Method: as §1, §2

[25] = test system: BT-549; experiment: as above; assay type: cell-based; conditions: BT-549, Breast, NCI protocol
Method: as §1, §2

[26] = test system: SF-539; experiment: NCI sixty human tumor cell line screen, CNS panel; assay type: cell-based; conditions: SF-539, CNS, NCI protocol
Method: as §1, §2

[27] = test system: SF-295; experiment: NCI sixty human tumor cell line screen, CNS panel; assay type: cell-based; conditions: SF-295, CNS, NCI protocol
Method: as §1, §2

[28] = test system: SF-268; experiment: NCI sixty human tumor cell line screen, CNS panel; assay type: cell-based; conditions: SF-268, CNS, NCI protocol
Method: as §1, §2

[29] = test system: U251; experiment: NCI sixty human tumor cell line screen, CNS panel; assay type: cell-based; conditions: U-251, NCI protocol
Method: as §1, §2

[30] = test system: SNB-75; experiment: NCI sixty human tumor cell line screen, CNS panel; assay type: cell-based; conditions: SNB-75, CNS, NCI protocol
Method: as §1, §2

[31] = test system: SNB-19; experiment: NCI sixty human tumor cell line screen, CNS panel; assay type: cell-based; conditions: SNB-19, CNS, NCI protocol
Method: as §1, §2

[32] = test system: NCI-H460; experiment: NCI sixty human tumor cell line screen, Non-small-cell-lung panel; assay type: cell-based; conditions: NCI protocol
Method: as §1, §2

[33] = test system: NCI-H226; experiment: as above; assay type: cell-based; conditions: NCI protocol
Method: as §1, §2

[34] = test system: EKVX; experiment: as above; assay type: cell-based; conditions: NCI protocol
Method: as §1, §2

[35] = test system: HOP-62; experiment: as above; assay type: cell-based; conditions: HOP-62, Non-small-cell-lung, NCI protocol
Method: as §1, §2

[36] = test system: NCI-H522; experiment: as above; assay type: cell-based; conditions: NCI protocol
Method: as §1, §2

[37] = test system: A549/ATCC; experiment: as above; assay type: cell-based; conditions: NCI protocol
Method: as §1, §2

[38] = test system: HT29; experiment: NCI sixty human tumor cell line screen, Colon panel; assay type: cell-based; conditions: HT-29, NCI protocol
Method: as §1, §2

[39] = test system: SW-620; experiment: as above; assay type: cell-based; conditions: SW-620, Colon, NCI protocol
Method: as §1, §2

[40] = test system: COLO 205; experiment: as above; assay type: cell-based; conditions: COLO 205, Colon, NCI protocol
Method: as §1, §2

[41] = test system: KM12; experiment: as above; assay type: cell-based; conditions: NCI protocol
Method: as §1, §2

[42] = test system: HCT-116; experiment: as above; assay type: cell-based; conditions: HCT-116, Colon, NCI protocol
Method: as §1, §2

With `COc1cc(Nc2ncccc2C(=O)NCc2cn(Cc3cccc(Oc4ccccc4)c3)nn2)cc(OC)c1` [Compound 1i, 2-(3,5-Dimethoxyphenylamino)-N-((1-(3-phenoxybenzyl)-1H-1,2,3-triazol-4-yl)methyl) nicotinamide] the GI50 [1] was 6.69 µM, the GI50 [2] was 2.23 µM and the GI50 [3] was 5.1 µM. It also gave a GI50 [4] of 4.8 µM, a GI50 [5] of 3.86 µM and a GI50 [6] of 3.11 µM. For the same compound, the GI50 [7] was 4.14 µM, the GI50 [8] was 3.69 µM and the GI50 [9] was 3.21 µM. It also gave a GI50 [10] of 5.96 µM, a GI50 [11] of 4.33 µM and a GI50 [12] of 5.42 µM. It also gave a GI50 [13] of 1.05 µM, a GI50 [14] of 4.74 µM and a GI50 [15] of 5.25 µM. The GI50 [16] was 4.18 µM, the GI50 [17] was 5.16 µM and the GI50 [18] was 7.41 µM. The GI50 [19] was 6.3 µM, the GI50 [20] was 6.9 µM and the GI50 [21] was 3.77 µM. It also gave a GI50 [22] of 4.68 µM, a GI50 [23] of 2.42 µM and a GI50 [24] of 5.35 µM. It also gave a GI50 [25] of 7.16 µM, a GI50 [26] of 4.39 µM and a GI50 [27] of 4.06 µM. The GI50 [28] was 5.43 µM, the GI50 [29] was 4.58 µM and the GI50 [30] was 3.98 µM. It also gave a GI50 [31] of 9.64 µM, a GI50 [32] of 3.98 µM and a GI50 [33] of 9.82 µM. It also gave a GI50 [34] of 6.33 µM, a GI50 [35] of 6.31 µM and a GI50 [36] of 3.31 µM. The GI50 [37] was 4.02 µM, the melting point was 123 to 125 °C and the GI50 [38] was 3.88 µM. For the same compound, the GI50 [39] was 3.88 µM, the GI50 [40] was 4.12 µM and the GI50 [41] was 3.84 µM. The GI50 [42] was 4.34 µM.
